16 molecules from patent US11406624B2, “Pyrazolopyridine compounds and uses thereof” (Incyte Corporation, priority 2017, dated 2022) can be followed below.

Broadly, the Ki is a measure of affinity in units of concentration, obtained from inhibition or displacement. A high value points to weaker binding.

SMILES strings stand for the structures.

For the test, the target named is HPK1 (Homo sapiens (Human), UniProt Q92918). The experiment in a line: HPK1 Kinase Binding Assay. The settings on record: LanthaScreen tracer 222 binding, active HPK1, one hour incubation at 25° C. The procedure: A stock solution of 1 mM test compound was prepared in DMSO. The compound plate was prepared by 3-fold and 11-point serial dilutions. 0.1 μL of the compound in DMSO was transferred from the compound plate to the white 384 well polystyrene plates. The assay buffer contained 50 mM HEPES, pH 7.5, 0.01% Tween-20, 5 mM MgCl2, 0.01% BSA, and 5 mM DTT. 5 μl of 4 nM active HPK1 (SignalChem M23-11G) prepared in the buffer was added to the plate. The enzyme concentration given was based on the given stock concentration reported by the vender. 5 μl of 18 nM tracer 222 (ThermoFisher PV6121) and 4 nM LanthaScreen Eu-Anti GST antibody (ThermoFisher PV5595) were added. After one hour incubation at 25° C., the plates were read on a PHERAstar FS plate reader (BMG Labtech). Ki values were determined.
HPK1, sequence (Q92918 1-346): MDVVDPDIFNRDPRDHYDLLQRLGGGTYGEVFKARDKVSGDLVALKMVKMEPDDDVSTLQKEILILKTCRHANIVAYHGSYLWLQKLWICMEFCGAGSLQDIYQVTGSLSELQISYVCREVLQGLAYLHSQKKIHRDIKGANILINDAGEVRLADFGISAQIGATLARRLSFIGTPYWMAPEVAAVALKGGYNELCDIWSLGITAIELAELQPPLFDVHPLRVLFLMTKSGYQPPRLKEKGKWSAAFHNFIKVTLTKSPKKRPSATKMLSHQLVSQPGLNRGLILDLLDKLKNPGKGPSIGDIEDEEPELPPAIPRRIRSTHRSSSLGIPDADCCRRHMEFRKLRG
On the technique in general: TR-FRET usually uses a lanthanide donor and a delayed reading to cut background.
As to `Cc1c(-c2cc3c(NC(=O)c4ccc(N5CCC(F)(F)C5)cc4)n[nH]c3cn2)cnn1C` [Example 13, 4-(3,3-Difluoropyrrolidin-1-yl)-N-(5-(1,5-dimethyl-1H-pyrazol-4-yl)-1H-pyrazolo[3,4-c]pyridin-3-yl)benzamide], the Ki is at most 100 nM.
The figure for `Cc1ccncc1-c1cc2c(NC(=O)c3ccc(N4CCCC(N)C4)cc3)n[nH]c2cn1` (stereo not shown) [Example 5, 4-(3-Aminopiperidin-1-yl)-N-(5-(4-methylpyridin-3-yl)-1H-pyrazolo[3,4-c]pyridin-3-yl)benzamide] is at most 100 nM; for `COC1CCCN(c2ccc(C(=O)Nc3n[nH]c4cnc(-c5cnn(C)c5C)cc34)cc2)C1` (stereo not shown) [Example 10, N-(5-(1,5-dimethyl-1H-pyrazol-4-yl)-1H-pyrazolo[3,4-c]pyridin-3-yl)-4-(3-methoxypiperidin-1-yl)benzamide] it is at most 100 nM.
The figure for `CCOC(=O)N1CCN(c2ccc(C(=O)Nc3n[nH]c4cnc(-c5cnn(C)c5C)cc34)cc2)CC1` [Example 8, Ethyl 4-(4-(5-(1,5-dimethyl-1H-pyrazol-4-yl)-1H-pyrazolo[3,4-c]pyridin-3-ylcarbamoyl)phenyl)piperazine-1-carboxylate] is at most 100 nM.
The figure for `COc1ccncc1-c1cc2c(C(=O)Nc3ccc(N4CCN(C)CC4)cc3)n[nH]c2cn1` [Example 16, 5-(4-Methoxypyridin-3-yl)-N-(4-(4-methylpiperazin-1-yl)phenyl)-1H-pyrazolo[3,4-c]pyridine-3-carboxamide] is at most 100 nM; for `Cc1ccncc1-c1cc2c(NC(=O)c3ccc(N4CCN(C)CC4)cc3)n[nH]c2cn1` [Example 2, 4-(4-Methylpiperazin-1-yl)-N-(5-(4-methylpyridin-3-yl)-1H-pyrazolo[3,4-c]pyridin-3-yl)benzamide] it is at most 100 nM; for `Cc1c(-c2cc3c(NC(=O)c4ccc(N5CCOCC5)cc4)n[nH]c3cn2)cnn1C` [Example 6, N-(5-(1,5-dimethyl-1H-pyrazol-4-yl)-1H-pyrazolo[3,4-c]pyridin-3-yl)-4-morpholinobenzamide] it is at most 100 nM.
Turning to `Cc1ccncc1-c1cc2c(C(=O)Nc3ccc(N4CCN(C)CC4)cc3)n[nH]c2cn1` [Example 15, N-(4-(4-methylpiperazin-1-yl)phenyl)-5-(4-methylpyridin-3-yl)-1H-pyrazolo[3,4-c]pyridine-3-carboxamide], the inhibition constant Ki was at most 100 nM.
The value for `Cc1ccncc1-c1cc2c(NC(=O)c3ccc(N4CCOCC4)cc3)n[nH]c2cn1` [Example 1, N-(5-(4-methylpyridin-3-yl)-1H-pyrazolo[3,4-c]pyridin-3-yl)-4-morpholinobenzamide] was at most 100 nM.
The figure for `Cc1c(-c2cc3c(NC(=O)c4ccc(N5CCN(C)CC5)cc4)n[nH]c3cn2)cnn1C` [Example 7, N-(5-(1,5-dimethyl-1H-pyrazol-4-yl)-1H-pyrazolo[3,4-c]pyridin-3-yl)-4-(4-methylpiperazin-1-yl)benzamide] is at most 100 nM; for `COC1CCN(c2ccc(C(=O)Nc3n[nH]c4cnc(-c5cnn(C)c5C)cc34)cc2)CC1` [Example 9, N-(5-(1,5-dimethyl-1H-pyrazol-4-yl)-1H-pyrazolo[3,4-c]pyridin-3-yl)-4-(4-methoxypiperidin-1-yl)benzamide] it is at most 100 nM; for `COC1CCN(c2ccc(C(=O)Nc3n[nH]c4cnc(-c5cnccc5C)cc34)cc2)CC1` [Example 4, 4-(4-Methoxypiperidin-1-yl)-N-(5-(4-methylpyridin-3-yl)-1H-pyrazolo[3,4-c]pyridin-3-yl)benzamide] it is at most 100 nM.
The figure for `CCOC(=O)N1CCN(c2ccc(C(=O)Nc3n[nH]c4cnc(-c5cnccc5C)cc34)cc2)CC1` [Example 3, Ethyl 4-(4-(5-(4-methylpyridin-3-yl)-1H-pyrazolo[3,4-c]pyridin-3-ylcarbamoyl)phenyl)piperazine-1-carboxylate] is at most 100 nM; for `CCCNc1ccc(C(=O)Nc2n[nH]c3cnc(-c4cnn(C)c4C)cc23)cc1` [Example 11, N-(5-(1,5-dimethyl-1H-pyrazol-4-yl)-1H-pyrazolo[3,4-c]pyridin-3-yl)-4-(propylamino)benzamide] it is at most 100 nM.
For `COc1ccncc1-c1cc2c(NC(=O)c3ccc(N4CCN(C)CC4)cc3)n[nH]c2cn1` [Example 14, N-(5-(4-methoxypyridin-3-yl)-1H-pyrazolo[3,4-c]pyridin-3-yl)-4-(4-methylpiperazin-1-yl)benzamide], the Ki is at most 100 nM.
In turn, `COCCNc1ccc(C(=O)Nc2n[nH]c3cnc(-c4cnn(C)c4C)cc23)cc1` [Example 12, N-(5-(1,5-dimethyl-1H-pyrazol-4-yl)-1H-pyrazolo[3,4-c]pyridin-3-yl)-4-(2-methoxyethylamino)benzamide] yielded a Ki of at most 100 nM.
